Experimental data as given in patent publication US20080293683A1, “Hormone Replacement Therapy” (University of Kansas Medical Center, priority 2007, published 2008).
Values joined by “and” are separate entries in the source; they are usually repeats but may differ in a detail not shown here. Identical values can stand only once. Like-named read-outs stand apart in the source and are kept apart here.

Key:
recombinant human ERα = target: T1, recombinant human ERα (Homo sapiens, UniProt P03372); assay: ERα binding assay: competition of [3H]E2 binding by competing estrogens; details: for RBAα % (relative binding affinity for ERα, of E2): calculated against E2 = 100; for RBAα/RBAβ: ratio of relative binding affinities ERα over ERβ
T1 construct: purchased PanVera Corporation (Madison, Wis.); host or cells: baculovirus-mediated expression system
T1 sequence (P03372 1-595): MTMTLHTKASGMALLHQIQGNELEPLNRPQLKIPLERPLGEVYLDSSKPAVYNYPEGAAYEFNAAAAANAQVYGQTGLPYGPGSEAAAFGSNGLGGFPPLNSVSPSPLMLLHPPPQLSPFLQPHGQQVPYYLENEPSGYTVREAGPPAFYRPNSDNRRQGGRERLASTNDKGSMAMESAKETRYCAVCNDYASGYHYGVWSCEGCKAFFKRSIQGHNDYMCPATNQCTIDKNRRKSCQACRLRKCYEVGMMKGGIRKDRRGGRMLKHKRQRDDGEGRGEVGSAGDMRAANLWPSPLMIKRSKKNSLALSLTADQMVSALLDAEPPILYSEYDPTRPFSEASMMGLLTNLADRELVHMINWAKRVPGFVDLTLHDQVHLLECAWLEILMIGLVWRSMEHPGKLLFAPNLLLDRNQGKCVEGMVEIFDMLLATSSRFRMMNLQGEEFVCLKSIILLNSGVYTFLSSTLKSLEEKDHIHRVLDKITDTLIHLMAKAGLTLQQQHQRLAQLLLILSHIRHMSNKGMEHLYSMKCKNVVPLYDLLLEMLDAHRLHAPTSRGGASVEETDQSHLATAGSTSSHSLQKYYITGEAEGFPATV
Excerpt: (§1) The recombinant human ERα and ERβ proteins and bovine serum albumin (BSA) were obtained from PanVera Corporation (Madison, Wis.). According to the supplier, the recombinant human ERα and ERβ were produced in a baculovirus-mediated expression system, and they were soluble and functionally active, with post-translational modifications similar to those found in mammalian cells. See Reid et al., Human estrogen receptor-α: Regulation by synthesis, modification and degradation, Cell. Mol. Life.
(§2) The following buffer solutions were used in the ER binding assays, and they were prepared beforehand and stored at 4° C. The binding buffer consisted of 10% glycerol, 2 mM dithiothreitol, 1 mg/mL BSA and 10 mM Tris-HCl at pH 7.5. The ERα washing buffer contained 40 mM Tris-HCl and 100 mM KCl (pH 7.4), but the ERG washing buffer contained only 40 mM Tris-HCl (adjusted to pH 7.4). The 50% hydroxylapatite slurry was prepared first by vigorously mixing 10 g hydroxylapatite with 60 mL of the Tris-HCl solution (50 mM, pH 7.4). Hydroxylapatite was then allowed to settle for 20 minutes at room temperature, and the supernatant was decanted. The above procedures were repeated 10 times, and afterwards hydroxylapatite was kept in the 50 mM Tris-HCl solution overnight at 4° C. Hydroxylapatite slurry was then adjusted to an approximate final concentration of 50% (v/v) using the same Tris-HCl solution and stored at 4° C., and the slurry was stable for up to several months.
(§3) Note that all of the estrogens were initially dissolved in pure ethanol to a stock concentration of 1 mM, and then further diluted to 100 μM with 20% aqueous ethanol. […] Immediately before the addition of the ERα or ERβ protein, it was diluted in the binding buffer and mixed gently with repetitive pipettings. […] The incubation mixture was then mixed gently and thoroughly with repetitive pipettings. […] The binding mixture was incubated at room temperature for two hours. At the end of the incubation, 100 μL of the hydroxylapatite slurry was added to each tube and the tubes were incubated on ice for 15 minutes with 3 times of brief vortexing. An aliquot (1 mL) of the appropriate washing buffer was added, mixed, and centrifuged at 10,000 g for five minutes, and the supernatants were discarded. This wash step was repeated twice. Hydroxylapatite pellets were then resuspended in 200 μL ethanol (followed by another rinse with 200 μL ethanol), and then the content was transferred to scintillation vials (containing 4 mL of the scintillation fluid) for measurement of ^3H-radioactivity with a liquid scintillation counter (Packard Tri-CARB 2900 TR; Downers Grove, Ill.).
(§4) To calculate the specific binding (pmol/mL) of the human ERα or ERβ protein at each concentration point, the following equation was used: […]
(§5) When a lower radioligand concentration is used, the corresponding IC50 value will also be relatively lower, but when the radioligand concentration increases, the corresponding IC50 value will also increase. […] Since the RBA value is a parameter that is independent of the radioligand concentration used, we thus have placed more emphasis on the RBA values instead of the absolute IC50 values in interpreting the physiological meanings of the data from in vitro receptor competition assays.

recombinant human ERβ = target: T2, recombinant human ERβ (Homo sapiens, UniProt Q92731); assay: ERβ binding assay: competition of [3H]E2 binding by competing estrogens; details: for RBAβ (%) (relative binding affinity for ERβ, of E2): calculated against E2 = 100; for binding affinity for ERβ (in words): concentrations up to 1000 nM
T2 construct: purchased PanVera Corporation (Madison, Wis.); host or cells: baculovirus-mediated expression system
Excerpt: as §1, §2, §3, §4, §5

T2 sequence (Q92731 whole entry): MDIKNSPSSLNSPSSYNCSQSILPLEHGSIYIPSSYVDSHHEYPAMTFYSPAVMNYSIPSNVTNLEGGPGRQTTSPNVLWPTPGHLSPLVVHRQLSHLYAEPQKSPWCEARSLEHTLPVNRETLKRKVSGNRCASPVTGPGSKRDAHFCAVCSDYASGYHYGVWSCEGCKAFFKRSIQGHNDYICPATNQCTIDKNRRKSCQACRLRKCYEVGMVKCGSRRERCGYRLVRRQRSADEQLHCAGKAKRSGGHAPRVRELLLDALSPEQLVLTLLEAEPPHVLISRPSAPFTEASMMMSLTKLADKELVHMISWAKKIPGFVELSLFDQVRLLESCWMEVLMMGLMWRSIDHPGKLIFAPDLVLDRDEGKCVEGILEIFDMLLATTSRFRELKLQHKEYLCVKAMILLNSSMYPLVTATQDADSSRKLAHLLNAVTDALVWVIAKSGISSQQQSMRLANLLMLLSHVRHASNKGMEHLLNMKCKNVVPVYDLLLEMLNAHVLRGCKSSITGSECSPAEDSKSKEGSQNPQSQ

Row | SMILES | RBAα % (relative binding affinity for ERα, of E2) (recombinant human ERα) | RBAα/RBAβ (recombinant human ERα) | IC50 (recombinant human ERα; read-out: ERα IC50) [nM] | RBAβ (%) (relative binding affinity for ERβ, of E2) (recombinant human ERβ) | IC50 (recombinant human ERβ; read-out: ERβ IC50) [nM] | also measured
1 | C[C@]12CC[C@@H]3c4cc(O)c(O)cc4CC[C@H]3[C@@H]1C[C@@H](O)[C@@H]2O [2-OH-E3, 2-Hydroxyestriol] | 2% | 2 | 501 | 1 | 794 | RBAα/RBAβ (recombinant human ERα; listed as 2-hydroxyestriol): about 2
2 | C[C@]12CC[C@@H]3c4ccc(O)c(Br)c4CC[C@H]3[C@@H]1CC[C@@H]2O [4-Br-E2, 4-Bromoestradiol] | 7% | 0.2 | 159 | 35 | 25.1 | preference of binding affinity for ERβ over ERα (recombinant human ERβ; ERβ over ERα): about 5 fold
3 | COc1c(O)ccc2c1CCC1C2CCC2(C)C(=O)CCC12 (stereo not shown) [4-MeO-E1, 4-Methoxyestrone] |  |  |  |  |  | IC50 (recombinant human ERα): > 1000 nM; binding affinity for ERα (in words) (recombinant human ERα): did not have appreciable binding affinity; IC50 (recombinant human ERβ): > 1000 nM; binding affinity for ERβ (in words) (recombinant human ERβ): did not have appreciable binding affinity
4 | COc1c(O)ccc2c1CCC1C2CCC2(C)C(O)CCC12 (stereo not shown) [4-MeO-E2, 4-Methoxyestradiol] | 2% | 2 |  | 1 |  | IC50 (recombinant human ERα): 708 nM; RBAα/RBAβ (recombinant human ERα; listed as 4-methoxyestradiol): about 2; IC50 (recombinant human ERβ): 891 nM
5 | COc1c(O)ccc2c1CC[C@@H]1[C@@H]2CC[C@]2(C)[C@@H](O)[C@H](O)C[C@@H]12 [4-MeO-E3, 4-Methoxyestriol] | 1% | 1 | 1260 | 1 | 631 | 
6 | Cc1c(O)ccc2c1CC[C@@H]1[C@@H]2CC[C@]2(C)[C@@H](O)CC[C@@H]12 [4-Methyl-E2, 4-Methylestradiol] | 7% and 9% | 0.3 | 126 | 35 | 25.1 | 
7 | CC12CCC3c4ccc(O)c(N)c4CCC3C1CCC2=O (stereo not shown) [4-NH2-E1, 4-Aminoestrone] | 3% |  | 355 |  | > 1000 | binding affinity for ERα (in words) (recombinant human ERα; concentrations up to 1000 nM): very weak binding affinities; binding affinity for ERβ (in words) (recombinant human ERβ): very weak binding affinities
8 | CC12CCC3c4ccc(O)c([N+](=O)[O-])c4CCC3C1CCC2=O (stereo not shown) [4-NO2-E1, 4-Nitroestrone] | 3% |  | 447 |  | > 1000 | binding affinity for ERα (in words) (recombinant human ERα; concentrations up to 1000 nM): very weak binding affinities; binding affinity for ERβ (in words) (recombinant human ERβ): very weak binding affinities
9 | CC12CCC3c4ccc(O)c(O)c4CCC3C1CCC2=O (stereo not shown) [4-OH-E1, 4-Hydroxyestrone] | 2% | 2 | 708 | 1 | 708 | RBAα/RBAβ (recombinant human ERα; listed as 4-hydroxyestrone): about 2
10 | C[C@]12CC[C@@H]3c4ccc(O)c(O)c4CC[C@H]3[C@@H]1CC[C@@H]2O [4-OH-E2, 4-Hydroxyestradiol] | 70% | 1.3 | 15.9 | 56 | 15.9 | RBAα/RBAβ (recombinant human ERα; listed as 4-hydroxyestradiol): about 1.3
11 | CC12CCC3c4ccc(O)cc4C(=O)CC3C1CCC2=O (stereo not shown) [6-Keto-E1, 6-Ketoestrone] | 2% | 2 | 490 | 1 | 891 | RBAα/RBAβ (recombinant human ERα; listed as 6-ketoestrone): about 2; RBA for ERα, % of E1 (recombinant human ERα; relative to E1): 23%; RBA for ERβ, % of E1 (recombinant human ERβ; relative to E1): 50%
12 | CC12CCC3c4ccc(O)cc4C(=O)CC3C1CCC2O (stereo not shown) [6-Keto-E2, 6-Ketoestradiol] | 71% | 1.3 |  | 56 |  | IC50 (recombinant human ERα): 15.9 nM; RBAα/RBAβ (recombinant human ERα; listed as 6-ketoestradiol): about 1.3; IC50 (recombinant human ERβ): 15.9 nM
13 | C[C@]12CC[C@@H]3c4ccc(O)cc4C(=O)C[C@H]3[C@@H]1CC[C@H]2O [6-Keto-E2-17α, 6-Ketoestradiol-17α] | 2% | 2 |  | 1 |  | IC50 (recombinant human ERα): 562 nM; RBAα/RBAβ (recombinant human ERα; listed as 6-ketoestradiol-17α): about 2; RBA for ERα, % of E2-17α (recombinant human ERα; relative to E2-17α): 9%; IC50 (recombinant human ERβ): 1120 nM; RBA for ERβ, % of E2-17α (recombinant human ERβ; relative to E2-17α): 25%
14 | CC12CCC3c4ccc(O)cc4C(=O)CC3C1CC(O)C2O (stereo not shown) [6-Keto-E3, 6-Ketoestriol] | 25% | 8.3 | 44.7 | 3 | 316 | RBAα/RBAβ (recombinant human ERα; listed as 6-ketoestriol): about 8.3; RBA for ERα, % of E3 (recombinant human ERα; relative to E3): 224%; RBA for ERβ, % of E3 (recombinant human ERβ; relative to E3): 8%
15 | C[C@]12CC[C@@H]3c4ccc(O)cc4[C@@H](O)C[C@H]3[C@@H]1CC[C@@H]2O [6α-OH-E2, 6α-Hydroxyestradiol] | 6% | 1.5 | 200 | 4 | 251 | RBAα/RBAβ (recombinant human ERα; listed as 6α-hydroxyestradiol): about 1.5
16 | C[C@]12CC[C@@H]3c4ccc(O)cc4[C@H](O)C[C@H]3[C@@H]1CC[C@@H]2O [6β-OH-E2, 6β-Hydroxyestradiol] | 1% | 0.5 | 794 | 2 | 562 | 
17 | C[C@]12C[C@@H](O)[C@@H]3c4ccc(O)cc4CC[C@H]3[C@@H]1CCC2=O [11α-OH-E1, 11α-Hydroxyestrone] |  |  | > 1000 |  | > 1000 | 
18 | C[C@]12C[C@@H](O)[C@@H]3c4ccc(O)cc4CC[C@H]3[C@@H]1CC[C@@H]2O [11α-OH-E2, 11α-Hydroxyestradiol] |  |  | > 1000 |  | > 1000 | 
19 | C#C[C@]1(O)CC[C@H]2[C@@H]3CCc4cc(O)ccc4[C@H]3[C@@H](OC)C[C@@]21C [11β-MeO-EE2, 11β-Methoxyethynylestradiol] | 35% | 1.8 | 31.6 | 20 | 44.7 | RBAα/RBAβ (recombinant human ERα; listed as 11β-methoxyethynyl estradiol): about 1.8
20 | C[C@]12C[C@H](O)[C@@H]3c4ccc(O)cc4CC[C@H]3[C@@H]1CCC2=O [11β-OH-E1, 11β-Hydroxyestrone] |  |  | > 1000 |  | > 1000 | 
21 | CC12CC(O)C3c4ccc(O)cc4CCC3C1CCC2O (stereo not drawn) [11β-OH-E2, 11β-Hydroxyestradiol] |  |  | > 1000 |  | > 1000 | 
